Measured values from ChEMBL document CHEMBL3044909, “Design, synthesis, and evaluation of an activity-based probe for cellular imaging of monoamine oxidases” (Med Chem Res, 2012).

What was measured:
[1] = target: T1, Amine oxidase [flavin-containing] A (Homo sapiens, UniProt P21397); assay: Binding affinity to MAOA (unknown origin) using 7-(3-amino-propoxy)-coumarin as substrate after 3 hr by spectrofluorometric analysis
T1 sequence (P21397 whole entry): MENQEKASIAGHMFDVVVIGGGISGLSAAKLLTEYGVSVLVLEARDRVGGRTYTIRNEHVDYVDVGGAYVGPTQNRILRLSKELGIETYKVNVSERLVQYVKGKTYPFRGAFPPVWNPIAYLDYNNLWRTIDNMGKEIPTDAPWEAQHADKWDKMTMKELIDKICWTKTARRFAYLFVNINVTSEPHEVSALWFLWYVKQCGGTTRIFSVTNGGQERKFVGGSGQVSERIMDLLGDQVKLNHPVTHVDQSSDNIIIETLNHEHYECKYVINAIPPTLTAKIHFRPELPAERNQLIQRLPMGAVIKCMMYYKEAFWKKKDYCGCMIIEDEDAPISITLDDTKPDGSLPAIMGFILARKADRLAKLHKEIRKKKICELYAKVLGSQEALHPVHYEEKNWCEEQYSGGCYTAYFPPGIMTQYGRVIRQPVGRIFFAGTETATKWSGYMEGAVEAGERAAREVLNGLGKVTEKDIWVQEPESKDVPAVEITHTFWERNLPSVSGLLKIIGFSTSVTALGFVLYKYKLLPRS

[2] = target: T2, Amine oxidase [flavin-containing] B (Homo sapiens, UniProt P27338); assay: Binding affinity to MAOB (unknown origin) using 7-(3-amino-propoxy)-coumarin as substrate after 3 hr by spectrofluorometric analysis
T2 sequence (P27338 whole entry): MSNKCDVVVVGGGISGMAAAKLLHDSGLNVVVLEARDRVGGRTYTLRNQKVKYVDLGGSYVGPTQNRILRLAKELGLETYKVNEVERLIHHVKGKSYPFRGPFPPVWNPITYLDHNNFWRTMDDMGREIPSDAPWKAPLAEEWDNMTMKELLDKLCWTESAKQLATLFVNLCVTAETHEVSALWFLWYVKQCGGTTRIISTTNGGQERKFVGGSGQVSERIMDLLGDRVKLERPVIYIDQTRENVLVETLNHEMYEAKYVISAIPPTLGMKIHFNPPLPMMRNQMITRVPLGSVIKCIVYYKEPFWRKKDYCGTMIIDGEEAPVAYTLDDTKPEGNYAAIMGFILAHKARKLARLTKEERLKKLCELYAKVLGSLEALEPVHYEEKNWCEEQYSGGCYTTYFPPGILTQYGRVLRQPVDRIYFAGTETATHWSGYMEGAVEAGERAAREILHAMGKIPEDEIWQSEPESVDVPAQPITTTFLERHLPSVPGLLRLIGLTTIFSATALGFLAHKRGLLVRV

| IC50 [1] [µM] | IC50 [2] [µM] | Compound |
| --- | --- | --- |
| 8.6 | 79.5 | NCCCCCCNCC(N)=O |
| 5.7 | 54.3 | CC(C)(C)OC(=O)NCCCCCCNCC(N)=O |
